Measurements: ChEMBL document CHEMBL4052715, “Discovery of novel DAPY-IAS hybrid derivatives as potential HIV-1 inhibitors using molecular hybridization based on crystallographic overlays” (Bioorg Med Chem, 2017)
The source made the active and inactive calls. No cut-off for these calls is given here.

Experiments:
[1] = tested on: Human immunodeficiency virus 1; assay: Antiviral activity against wild type HIV1 3B infected in human MT4 cells assessed as inhibition of virus-induced cytopathic effect after 5 days by MTT assay; type: functional, cell-based; details: Human immunodeficiency virus 1, 3B, MT4, 120 h
[2] = Cytotoxicity against human MT4 cells assessed as reduction in cell viability after 5 days by MTT assay; type: cell-based
[3] = Selectivity index, ratio of CC50 for human MT4 cells to EC50 for wild type HIV1 3B infected in human MT4 cells; type: toxicity, cell-based; details: read-out: Ratio CC50/EC50
[4] = tested on: Human immunodeficiency virus 1; assay: Antiviral activity against HIV1 RES056 harboring reverse transcriptase K103N/Y181C double mutant infected in human MT4 cells assessed as inhibition of virus-induced cytopathic effect after 5 days by MTT assay; type: functional, cell-based
[5] = tested on: Human immunodeficiency virus 2; assay: Antiviral activity against HIV2 ROD harboring reverse transcriptase K103N/Y181C double mutant infected in human MT4 cells assessed as inhibition of virus-induced cytopathic effect after 5 days by MTT assay; type: functional, cell-based; details: ISOLATE ROD
[6] = tested on: Human immunodeficiency virus 1; assay: Inhibition of recombinant wild type HIV1 reverse transcriptase assessed as reduction in biotin-dUTP incorporation at 50 uM using poly(A)/oligo(dT)15 as template/primer by ELISA relative to control

| Compound | EC50 [1] [µM] | CC50 at 120 h [2] [µM] | selectivity ratio [3] | inhibition [4] | inhibition [5] | inhibition [6] [%] |
| --- | --- | --- | --- | --- | --- | --- |
| CC(C)(C)c1ccc(S(=O)(=O)Nc2ccnc(Nc3ccc(C#N)cc3)n2)cc1 | 7.52 | 30.3 | 4 | inactive | inactive | – |
| N#Cc1ccc(Nc2nccc(NS(=O)(=O)c3ccc4ccccc4c3)n2)cc1 | 48.9 | 77.1 | 2 | inactive | inactive | – |
| N#Cc1ccc(Nc2cc(NS(=O)(=O)c3ccc(C(F)(F)F)cc3)ccn2)cc1 | > 28 | 28 | < 1 | inactive | inactive | – |
| Cc1cc(C)cc(S(=O)(=O)Nc2ccnc(Nc3ccc(C#N)cc3)n2)c1 | 6.21 | 173 | 28 | inactive | inactive | – |
| Cc1ccnc2c1NC(=O)c1cccnc1N2C1CC1 | – | – | – | – | – | 88 |
| O=c1[nH]cnc2c1ncn2[C@H]1CC[C@@H](CO)O1 [DIDANOSINE] | 76 | > 212 | > 3 | – | – | – |
| N#Cc1ccc(Nc2nccc(NS(=O)(=O)c3ccc(F)cc3)n2)cc1 | ≥ 9.05 | 36.6 | ≤ 4 | inactive | inactive | – |
| Nc1ccn([C@@H]2CS[C@H](CO)O2)c(=O)n1 [LAMIVUDINE] | 2.54 | > 87.2 | > 34 | – | – | – |
| Cc1cc(C)c(S(=O)(=O)Nc2ccnc(Nc3ccc(C#N)cc3)c2)c(C)c1 | 6.08 | 22.2 | 4 | inactive | inactive | – |
| N#Cc1ccc(Nc2nccc(NS(=O)(=O)c3cc(F)cc(F)c3)n2)cc1 | 47 | 93.9 | 2 | inactive | inactive | – |
| Cc1cc(C)cc(S(=O)(=O)Nc2ccnc(Nc3ccc(C#N)cc3)c2)c1 | > 5.06 | 5.06 | < 1 | inactive | inactive | – |
| N#Cc1ccc(Nc2nccc(NS(=O)(=O)c3ccc(C#N)cc3)n2)cc1 | 39.4 | 159 | 4 | inactive | inactive | – |
| N#Cc1ccc(Nc2cc(NS(=O)(=O)c3cc(F)cc(F)c3)ccn2)cc1 | > 28.6 | 28.6 | < 1 | inactive | inactive | – |
| CC(C)c1cc(C(C)C)c(S(=O)(=O)Nc2ccnc(Nc3ccc(C#N)cc3)c2)c(C(C)C)c1 | > 11.5 | 11.5 | < 1 | inactive | inactive | – |
| CC(C)(C)c1ccc(S(=O)(=O)Nc2ccnc(Nc3ccc(C#N)cc3)c2)cc1 | 4.92 | 29.3 | 6 | inactive | inactive | – |
| N#Cc1ccc(Nc2cc(NS(=O)(=O)c3ccc(C#N)cc3)ccn2)cc1 | > 93.4 | 93.4 | < 1 | inactive | inactive | – |
| Cc1cc(C)cc(S(=O)(=O)c2c(C(N)=O)[nH]c3ccc(Cl)cc23)c1 | 0.0026 | 11 | 4260 | – | – | – |
| Cc1ccc(S(=O)(=O)Nc2ccnc(Nc3ccc(C#N)cc3)n2)cc1 | 1.61 | 130 | 80 | inactive | inactive | 41.5 |
| N#Cc1ccc(Nc2cc(NS(=O)(=O)c3cc(C(F)(F)F)cc(C(F)(F)F)c3)ccn2)cc1 | > 62.2 | 62.2 | < 1 | inactive | inactive | – |
| Cc1cc(C)c(S(=O)(=O)Nc2ccnc(Nc3ccc(C#N)cc3)n2)c(C)c1 | > 4.4 | 4.4 | < 1 | inactive | inactive | – |
| Cc1cc(C#N)cc(C)c1Oc1nc(Nc2ccc(C#N)cc2)nc(N)c1Br [ETRAVIRINE] | 0.004 | 2.15 | 541 | – | – | 93.3 |
| CC(C)c1cc(C(C)C)c(S(=O)(=O)Nc2ccnc(Nc3ccc(C#N)cc3)n2)c(C(C)C)c1 | > 17.4 | 17.4 | < 1 | inactive | inactive | – |
| N#Cc1ccc(Nc2nccc(NS(=O)(=O)c3ccc(C(F)(F)F)cc3)n2)cc1 | > 54.7 | 54.7 | < 1 | inactive | inactive | – |
| Cc1ccc(S(=O)(=O)Nc2ccnc(Nc3ccc(C#N)cc3)c2)cc1 | 1.48 | 14 | 9 | inactive | inactive | 5.7 |
| N#Cc1ccc(Nc2cc(NS(=O)(=O)c3ccc(F)cc3)ccn2)cc1 | > 6.12 | 6.12 | < 1 | inactive | inactive | – |
| N#Cc1ccc(Nc2nccc(NS(=O)(=O)c3cc(C(F)(F)F)cc(C(F)(F)F)c3)n2)cc1 | > 115 | 115 | < 1 | inactive | inactive | – |
| N#Cc1ccc(Nc2cc(NS(=O)(=O)c3ccc4ccccc4c3)ccn2)cc1 | > 30 | 30 | < 1 | inactive | inactive | – |
